Measurements published in US20160354443A1, “Replacement Therapy for Natriuretic Peptide Deficiencies” (priority 2014, published 2016).
Positions of bridges follow the written chain, without caps; N, C: chain ends. Non-standard residues stand in square brackets, D forms with d. Residues, ends and D or L forms follow the SMILES beside them. *: point of attachment. X1 = N=C(N)NCCC[C@H]1C(=O)N[C@@H](C(N)=O)CN1*; dNle = CCCC[C@@H](N)C(=O)O; Heptanoyl = CCCCCCC(=O)*

What was measured:
[1] = Potter et al. 2009; cited from earlier work
[2] = Human clinical trial, subcutaneous formulation: half life; settings: in vivo, sc, subcutaneously administered formulation
Method: In a human clinical trial of a subcutaneously administered formulation in which the mimetic of formula IV was the active pharmaceutical ingredient, the half life of the mimetic of formula IV was determined to be approximately 3 hours. The mimetic of formula IV lead to a mean peak increase in plasma cGMP concentration of 1.7 ng/mL at a dose of 0.3 μg/kg of the mimetic of formula IV as a single, subcutaneous injection.

[3] = target: T1, human NPRA (Homo sapiens, UniProt P16066); assay: cGMP generation in HEK cells expressing human NPRA; assay type: cell-based; settings: mean ± SD
T1 sequence (P16066 33-1061): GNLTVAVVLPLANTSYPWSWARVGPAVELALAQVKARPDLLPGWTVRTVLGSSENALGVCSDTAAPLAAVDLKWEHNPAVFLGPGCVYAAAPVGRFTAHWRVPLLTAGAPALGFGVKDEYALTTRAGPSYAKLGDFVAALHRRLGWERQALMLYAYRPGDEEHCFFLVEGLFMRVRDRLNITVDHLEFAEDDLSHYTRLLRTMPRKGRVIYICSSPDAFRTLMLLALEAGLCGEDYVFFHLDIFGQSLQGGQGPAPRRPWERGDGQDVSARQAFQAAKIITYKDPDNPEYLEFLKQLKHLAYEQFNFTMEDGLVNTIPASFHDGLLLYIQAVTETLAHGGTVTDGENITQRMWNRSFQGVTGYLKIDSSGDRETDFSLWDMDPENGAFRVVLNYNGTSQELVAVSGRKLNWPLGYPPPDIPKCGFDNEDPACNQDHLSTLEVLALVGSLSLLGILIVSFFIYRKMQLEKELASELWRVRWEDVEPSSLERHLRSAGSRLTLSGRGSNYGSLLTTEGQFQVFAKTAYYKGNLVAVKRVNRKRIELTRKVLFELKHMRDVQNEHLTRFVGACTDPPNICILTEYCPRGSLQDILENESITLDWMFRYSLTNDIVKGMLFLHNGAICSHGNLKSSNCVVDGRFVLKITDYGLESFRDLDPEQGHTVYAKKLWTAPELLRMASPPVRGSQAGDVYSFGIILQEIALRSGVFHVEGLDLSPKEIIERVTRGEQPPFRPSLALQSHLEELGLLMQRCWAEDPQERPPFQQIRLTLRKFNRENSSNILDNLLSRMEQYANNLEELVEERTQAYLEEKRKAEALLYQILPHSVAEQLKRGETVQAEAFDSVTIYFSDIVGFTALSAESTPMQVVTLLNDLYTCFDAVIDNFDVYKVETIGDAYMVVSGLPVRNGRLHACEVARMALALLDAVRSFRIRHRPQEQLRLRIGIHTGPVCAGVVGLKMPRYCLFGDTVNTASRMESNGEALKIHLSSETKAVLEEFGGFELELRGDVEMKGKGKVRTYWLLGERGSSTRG
Method: Functional evaluation of natriuretic peptide mimetics was performed by measuring the accumulation of intracellular cGMP in HEK-293 cells that express recombinant hNPR-A. HEK-NPRA cells were harvested by washing and centrifugation in Cell Dissociation Buffer (Gibco, Life Technologies). Pelleted cells were resuspended in Hank's Balanced Salt Solution (HBSS) containing 10 mM Hepes (pH 7.4), 5 mM MgCl2, 200 mM L-glutamine, 1 mM 1,10-phenanthroline and BSA (0.5 mg/mL). Following centrifugation, cells were resuspended in the above buffer supplemented with 0.5 mM 3-isobutyl-1-methylxanthine (IBMX). […] The reaction was terminated by lysis of the cells with temperature shock. […] Accumulation of cGMP was measured using the cGMP Flashplate RIA (Perkin-Elmer). Data analysis and EC50 values were determined by using nonlinear regression analysis with GraphPad Prism® software.

[4] = target: T2, hNPRB (human NPRB) (Homo sapiens, UniProt P20594); assay: NPRB functional assay (cGMP generation) in HEK cell line; assay type: cell-based; settings: HEK293, mean ± SD, read-out: hNPRB Function (cGMP) Emax (%)
T2 construct: expressed in transfected cells; host or cells: HEK cell line
T2 sequence (P20594 23-1047): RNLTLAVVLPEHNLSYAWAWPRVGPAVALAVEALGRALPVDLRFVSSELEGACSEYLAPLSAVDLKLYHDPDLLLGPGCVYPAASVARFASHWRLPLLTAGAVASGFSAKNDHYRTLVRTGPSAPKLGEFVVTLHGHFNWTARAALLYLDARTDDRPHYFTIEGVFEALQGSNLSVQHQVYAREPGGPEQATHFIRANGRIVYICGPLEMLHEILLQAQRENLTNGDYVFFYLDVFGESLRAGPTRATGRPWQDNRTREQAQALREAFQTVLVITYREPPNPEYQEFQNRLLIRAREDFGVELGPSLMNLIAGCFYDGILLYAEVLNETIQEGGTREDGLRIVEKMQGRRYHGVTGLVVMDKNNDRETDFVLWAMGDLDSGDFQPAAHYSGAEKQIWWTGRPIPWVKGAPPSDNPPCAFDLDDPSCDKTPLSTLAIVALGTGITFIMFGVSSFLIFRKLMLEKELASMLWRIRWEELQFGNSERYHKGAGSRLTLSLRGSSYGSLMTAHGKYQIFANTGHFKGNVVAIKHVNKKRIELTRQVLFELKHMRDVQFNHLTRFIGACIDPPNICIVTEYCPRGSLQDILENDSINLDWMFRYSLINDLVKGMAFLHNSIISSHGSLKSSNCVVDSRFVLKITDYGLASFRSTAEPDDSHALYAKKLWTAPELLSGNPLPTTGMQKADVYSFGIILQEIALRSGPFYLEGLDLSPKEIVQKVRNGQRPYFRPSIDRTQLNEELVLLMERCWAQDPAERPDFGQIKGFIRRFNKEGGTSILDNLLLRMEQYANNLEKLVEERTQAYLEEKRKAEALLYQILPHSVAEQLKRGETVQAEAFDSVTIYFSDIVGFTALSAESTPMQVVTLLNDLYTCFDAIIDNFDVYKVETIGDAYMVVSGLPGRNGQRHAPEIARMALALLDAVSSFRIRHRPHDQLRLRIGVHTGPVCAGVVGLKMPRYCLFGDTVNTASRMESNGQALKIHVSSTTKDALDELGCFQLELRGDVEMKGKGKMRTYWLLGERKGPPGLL

[5] = test system: plasma cGMP; assay: Safety study in healthy volunteers: pharmacodynamic parameters (plasma cGMP); assay type: in vivo, human; settings: mean ± SD
Method: (§1) In a safety study, the mimetic of formula IV was administered to healthy volunteers. Doses of 0.1, 0.3, 0.7 and 1.0 μg/kg of the mimetic of formula IV were administered.
(§2) Kel is the apparent terminal elimination rate constant, calculated by linear regression of the terminal linear portion of the log concentration versus the time curve. The plasma cGMP concentrations returned to baseline levels by approximately 8 hours after dosing following 0.7 μg/kg and 1.0 μg/kg of the mimetic of formula IV.

[6] = as above; assay type: in vivo, human; settings: human, in vivo, mean ± SD, read-out: t½ (converted)
Method: as §1, §2

[7] = target: T3, rat NPRA (Rattus norvegicus, UniProt P18910); assay: cGMP generation in HEK cells expressing rat NPRA; assay type: cell-based; settings: mean ± SD
T3 construct: expressed in transfected cells; host or cells: HEK cell line
T3 sequence (P18910 29-1057): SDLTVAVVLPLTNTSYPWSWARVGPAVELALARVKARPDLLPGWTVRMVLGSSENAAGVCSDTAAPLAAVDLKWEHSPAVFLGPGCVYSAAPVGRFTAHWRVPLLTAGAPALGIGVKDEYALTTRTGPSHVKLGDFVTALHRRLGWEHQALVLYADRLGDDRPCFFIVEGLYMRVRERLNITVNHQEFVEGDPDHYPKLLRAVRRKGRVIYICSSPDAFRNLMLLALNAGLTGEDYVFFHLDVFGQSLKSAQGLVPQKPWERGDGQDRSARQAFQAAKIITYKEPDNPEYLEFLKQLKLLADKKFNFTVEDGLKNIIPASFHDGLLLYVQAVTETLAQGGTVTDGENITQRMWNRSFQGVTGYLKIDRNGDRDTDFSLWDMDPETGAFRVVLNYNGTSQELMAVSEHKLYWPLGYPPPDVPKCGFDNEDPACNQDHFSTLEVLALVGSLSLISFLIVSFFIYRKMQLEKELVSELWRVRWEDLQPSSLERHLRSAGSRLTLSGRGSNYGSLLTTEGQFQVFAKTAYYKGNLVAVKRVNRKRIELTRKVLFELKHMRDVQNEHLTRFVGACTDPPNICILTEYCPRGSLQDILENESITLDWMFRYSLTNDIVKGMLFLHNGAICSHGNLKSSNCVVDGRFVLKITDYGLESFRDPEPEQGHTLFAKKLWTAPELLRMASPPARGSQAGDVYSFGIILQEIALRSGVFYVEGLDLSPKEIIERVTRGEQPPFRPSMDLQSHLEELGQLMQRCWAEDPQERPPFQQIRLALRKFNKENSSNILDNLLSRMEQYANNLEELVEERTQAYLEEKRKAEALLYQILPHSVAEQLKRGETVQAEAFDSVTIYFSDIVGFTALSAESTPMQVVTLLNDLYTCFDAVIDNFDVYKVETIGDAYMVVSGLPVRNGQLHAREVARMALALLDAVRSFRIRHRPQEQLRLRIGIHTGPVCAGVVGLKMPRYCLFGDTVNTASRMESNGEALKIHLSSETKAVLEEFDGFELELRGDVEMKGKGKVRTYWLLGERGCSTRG

Structure (SMILES) | reported human plasma half-life [1] | half-life [2] | Emax ([3]; HEK293, hNPRA, read-out: hNPRA Function (cGMP) Emax (%)) | Function (cGMP) Emax (% of ANP response) ([3]; human NPRA) | Emax [4] | Kel (apparent terminal elimination rate constant) ([5]; dose 0.7 μg/kg) | Kel (apparent terminal elimination rate constant) ([5]; dose 1.0 μg/kg) | half-life ([6]; 0.7 ug/kg) | half-life ([6]; 1 ug/kg) | Function (cGMP) Emax (% of ANP response) [7]
CC[C@H](C)[C@@H]1NC(=O)[C@H](CCCNC(=N)N)NC(=O)[C@H](CC(=O)O)NC(=O)[C@H](CC(C)C)NC(=O)[C@H](CCCCN)NC(=O)[C@H](CC(C)C)NC(=O)CNC(=O)[C@H](Cc2ccccc2)NC(=O)[C@@H](NC(=O)CNC(=O)[C@H](CCCCN)NC(=O)[C@H](CO)NC(=O)[C@H](CC(C)C)NC(=O)CN)CSSC[C@@H](C(=O)O)NC(=O)CNC(=O)[C@H](CC(C)C)NC(=O)CNC(=O)[C@H](CO)NC(=O)[C@H](CCSC)NC(=O)[C@H](CO)NC(=O)CNC1=O [hCNP] | about 2 minutes |  |  |  |  |  |  |  |  | 
CCCCCCC(=O)N[C@H]1CSSC[C@@H](C(=O)N[C@@H](Cc2ccc(O)cc2)C(=O)N2C[C@H](C(N)=O)NC(=O)[C@@H]2CCCNC(=N)N)NC(=O)[C@H](CO)NC(=O)[C@H]([C@@H](C)CC)NC(=O)[C@H](CCCNC(=N)N)NC(=O)[C@H](CC(=O)O)NC(=O)[C@@H](CCCC)NC(=O)[C@H](CCCNC(=N)N)NC(=O)CNC(=O)[C@@H](C)NC(=O)[C@H](Cc2ccccc2)NC(=O)[C@H](Cc2c[nH]cn2)NC1=O [mimetic of formula IV] (Heptanoyl-CHF[dA]GR[dNle]DRISCY-X1; disulfide 1-12) |  | ~3 h | 94 ± 8% | 94 ± 8 % of ANP response | 1 ± 1% | 0.231 ± 0.025 h⁻¹ | 1.05 ± 1.22 h⁻¹ | 3.03 ± 0.345 h | 2.98 ± 3.61 h | 98 ± 7 % of ANP response
